Each block holds one compound with its values, some of them ahead of it.
Assays:
Progesterone receptor = conditions: DeManno et al., Steroids 68 (2003); cited from earlier work
[1] = Plasma concentrations and pharmacokinetic parameters of Compounds 1 and 2 in rats after oral Compound 1; type: in vivo, rat; conditions: for Cmax: po
Method: Under the same conditions as described in Example 2 three single dosages of Compound 1 (0.2, 1.0 and 5 mg/kg/day) were administered to rats. Blood samples were taken from the rats at several time-points (1, 2, 4, 7 and 24 h, N=3 animals at each time-point), to allow for calculation of AUC (0-24) and Cmax of compound 1 and compound 2 in rat plasma. The plasma samples were stored at −15° C. until analysis. Compound 1 and 2 were determined in plasma after protein precipitation with acetonitrile containing the internal standards for compound 1 and compound 2. The supernatant was analyzed by separation employing high-pressure liquid chromatography and tandem mass spectrometric detection. The lower limit of quantitation (LLOQ) for Compound 1 was 1.00 μg/L, the linear range between 1.00 and 200 μg/L. The lower limit of quantitation (LLOQ) for Compound 2 was 0.200 μg/L, the linear range between 0.200 and 200 μg/L. A sample volume of 0.1 mL plasma was used. The precision for Compound 1 ranged between 0.97 and 3.73%, accuracy between 99.8 and 101.3%, for Compound 2 precision ranged between 2.01 and 6.19%, accuracy between 92.3 and 96.6% calculated from the study quality control samples.

[2] = In vitro metabolism of 14C-labeled Compound 1 in human liver microsomes; type: in vitro ADME
Method: Human liver microsomes were incubated with (3α,11β,17β)-11-[4-(^14C-methylsulfonyl)phenyl]-17-(pentafluoroethyl)estra-4,9-diene-3,17-diol (Compound 1).
(§1) The incubation mixture containing buffer, reconstituting system and microsomal protein was preincubated at 37° C. for 3 min. Incubation was started by the addition of the solution containing (3α,11β,17β)-11-[4-(methylsulfonyl)phenyl]-17-(pentafluoroethyl)estra-4,9-diene-3,17-diol (Compound 1). The samples were incubated at 37° C. in a continuously operating shaking water bath. The incubation reaction was stopped by the addition of 160 μL acetonitrile. The stopped incubations were centrifuged for 10 minutes at 13000 rpm (4° C.) and stored at −18° C. until they were subsequently analysed. 50 μL of the supernatant was examined by chromatography and detected by radiometry and mass spectrometry.

recombinant human CYP3A4 = recombinant human CYP3A4 (Homo sapiens, UniProt P08684); test: In vitro metabolism of 14C-labeled Compound 1 in recombinant human CYP3A4 enzyme; type: in vitro ADME
Sequence of recombinant human CYP3A4 (P08684 whole entry): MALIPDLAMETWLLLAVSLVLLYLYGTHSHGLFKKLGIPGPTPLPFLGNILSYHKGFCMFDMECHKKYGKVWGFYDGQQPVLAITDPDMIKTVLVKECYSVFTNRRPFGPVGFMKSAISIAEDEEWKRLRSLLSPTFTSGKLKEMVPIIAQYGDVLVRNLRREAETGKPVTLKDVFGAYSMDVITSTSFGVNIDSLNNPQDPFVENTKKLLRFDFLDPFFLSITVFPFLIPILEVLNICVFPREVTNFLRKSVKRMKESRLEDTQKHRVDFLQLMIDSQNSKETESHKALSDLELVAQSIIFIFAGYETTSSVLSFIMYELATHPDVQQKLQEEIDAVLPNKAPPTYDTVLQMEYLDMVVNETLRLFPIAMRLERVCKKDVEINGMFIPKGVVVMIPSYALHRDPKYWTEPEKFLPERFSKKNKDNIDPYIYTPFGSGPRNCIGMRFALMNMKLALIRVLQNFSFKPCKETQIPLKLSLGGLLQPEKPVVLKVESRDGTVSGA
Method: Recombinant human CYP3A4 was incubated with (3α,11β,17β)-11-[4-(^14C-methylsulfonyl)phenyl]-17-(pentafluoroethyl)estra-4,9-diene-3,17-diol (Compound 1).
The incubation mixture containing buffer, reconstituting system and CYP3A4 protein was prepared and given into a 37° C. shaking water bath. Incubation was started by the addition of the solution containing (3α,11β,17β)-11-[4-(methylsulfonyl)phenyl]-17-(pentafluoroethyl)estra-4,9-diene-3,17-diol (Compound 1). The samples were incubated at 37° C. in a continuously operating shaking water bath. 200 μL of the incubation mixture were removed after incubation time and the reaction was stopped by the addition of 120 μL acetonitrile on an ice bath. The stopped incubations were centrifuged for 10 minutes at 12000 rpm (7° C.). After removing of the supernatant from the protein pellet the supernatant was stored at −20° C. until they were subsequently analysed. 50 μL of the supernatants was examined by chromatography and detected by radiometry and mass spectrometry.

[3] = molecular target: T1, human progesterone receptor A (Homo sapiens, UniProt P06401); test: PR-A transactivation assay in SK-N-MC cells (method as described in WO2011/009531); type: cell-based
T1 construct: expressed in transfected cells; host or cells: SK-N-MC (human neuroblastoma cells), stably transfected
T1 sequence (P06401 1-769 isoform P06401-2): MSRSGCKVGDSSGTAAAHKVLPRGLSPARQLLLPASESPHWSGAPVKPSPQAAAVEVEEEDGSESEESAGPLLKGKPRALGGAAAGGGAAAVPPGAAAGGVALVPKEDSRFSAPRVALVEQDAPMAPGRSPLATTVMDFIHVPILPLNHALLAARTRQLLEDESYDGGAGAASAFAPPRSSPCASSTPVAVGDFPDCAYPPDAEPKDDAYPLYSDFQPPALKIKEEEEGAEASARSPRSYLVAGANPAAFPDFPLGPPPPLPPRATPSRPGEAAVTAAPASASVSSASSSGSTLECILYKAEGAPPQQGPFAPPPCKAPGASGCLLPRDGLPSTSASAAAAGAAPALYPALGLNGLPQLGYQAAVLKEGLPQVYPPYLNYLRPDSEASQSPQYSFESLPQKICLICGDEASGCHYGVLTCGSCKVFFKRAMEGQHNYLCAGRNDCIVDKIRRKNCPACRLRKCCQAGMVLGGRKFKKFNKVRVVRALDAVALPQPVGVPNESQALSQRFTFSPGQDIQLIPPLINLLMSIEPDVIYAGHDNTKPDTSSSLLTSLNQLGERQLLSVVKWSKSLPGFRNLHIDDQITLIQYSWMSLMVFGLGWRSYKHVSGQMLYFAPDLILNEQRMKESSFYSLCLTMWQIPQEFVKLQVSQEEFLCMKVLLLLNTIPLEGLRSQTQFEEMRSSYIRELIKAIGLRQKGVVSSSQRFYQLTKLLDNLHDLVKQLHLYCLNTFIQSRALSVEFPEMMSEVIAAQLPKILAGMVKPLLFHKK
Method: (§2) SK-N-MC cells (human neuroblastoma cells), which have been stably transfected with plasmids, which express the human progesterone receptor B ([…]) or the human progesterone receptor A (pRChPR-A-neo) and a reporter construct (pMMTV-LUC), were incubated for 24 hours either in the absence (negative control) or in the presence of increasing amounts of the respective Compound 2 (0.01 nmol/l, 0.1 nmol/l, 1 nmol/l, 10 nmol/l, 100 nmol/land […]), in order to determine the agonistic efficacy. As positive control of reporter gene induction, the cells were treated with the synthetic gestagen promegestone (0.01 nmol/l, 0.1 nmol/l, 1 nmol/l, 10 nmol/l, 100 nmol/l and […]). For determination of the antagonistic activity, the cells were treated with 0.1 nmol/l promegestone and additionally with increasing amounts of the respective test compound (0.01 nmol/l, 0.1 nmol/l, 1 nmol/l, 10 nmol/l, 100 nmol/l and […]). The activity of the LUC reporter gene (LUC=luciferase) was determined in the cell lysates and was measured as RLU (relative light units).

[4] = molecular target: T2, human progesterone receptor B (Homo sapiens, UniProt P06401); test: PR-B transactivation assay in SK-N-MC cells (method as described in WO2011/009531); type: cell-based
T2 construct: expressed in transfected cells; host or cells: SK-N-MC (human neuroblastoma cells), stably transfected
T2 sequence (P06401 1-933): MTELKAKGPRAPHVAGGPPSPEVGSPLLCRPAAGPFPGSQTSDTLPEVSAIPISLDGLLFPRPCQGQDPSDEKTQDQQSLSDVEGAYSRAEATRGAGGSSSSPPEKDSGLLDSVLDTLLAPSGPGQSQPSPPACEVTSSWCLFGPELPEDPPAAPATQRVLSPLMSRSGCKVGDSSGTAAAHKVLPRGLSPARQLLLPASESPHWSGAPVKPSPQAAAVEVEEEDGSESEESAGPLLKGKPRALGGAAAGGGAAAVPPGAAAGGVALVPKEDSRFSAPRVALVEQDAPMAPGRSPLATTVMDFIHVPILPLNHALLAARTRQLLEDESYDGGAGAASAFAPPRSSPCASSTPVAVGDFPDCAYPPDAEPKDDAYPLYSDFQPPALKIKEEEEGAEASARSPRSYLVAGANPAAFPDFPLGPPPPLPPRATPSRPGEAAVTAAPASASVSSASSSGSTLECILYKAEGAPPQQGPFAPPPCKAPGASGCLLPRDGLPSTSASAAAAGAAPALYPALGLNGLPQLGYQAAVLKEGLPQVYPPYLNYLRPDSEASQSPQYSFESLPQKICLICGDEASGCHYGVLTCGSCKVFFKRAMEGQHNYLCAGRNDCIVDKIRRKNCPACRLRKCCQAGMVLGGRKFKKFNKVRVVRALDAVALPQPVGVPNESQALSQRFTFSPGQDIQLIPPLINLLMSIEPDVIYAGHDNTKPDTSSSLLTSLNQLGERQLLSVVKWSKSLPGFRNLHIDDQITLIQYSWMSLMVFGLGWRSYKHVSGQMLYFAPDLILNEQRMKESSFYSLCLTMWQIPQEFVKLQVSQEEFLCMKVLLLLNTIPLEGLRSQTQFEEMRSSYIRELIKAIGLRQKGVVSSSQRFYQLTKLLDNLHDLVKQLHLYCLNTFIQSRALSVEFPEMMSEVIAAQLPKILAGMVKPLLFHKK
Method: as §2

[5] = In vitro metabolism of 14C-labeled Compound 2 in human liver cytosol; type: in vitro ADME
Method: Human liver cytosol was incubated with (11β,17β)-17-Hydroxy-11-[4-(methylsulphonyl)phenyl]-17-(pentafluoroethyl)estra-4,9-dien-3-one (Compound 2).
as §1, with “and cytosolic” for “and microsomal”, “containing (11β,17β)-17-Hydroxy-11-[4-(methylsulphonyl)phenyl]-17-(pentafluoroethyl)estra-4,9-dien-3-one” for “containing (3α,11β,17β)-11-[4-(methylsulfonyl)phenyl]-17-(pentafluoroethyl)estra-4,9-diene-3,17-diol”, “(Compound 2).” for “(Compound 1).”, “bath. 250 μL of the” for “bath. The”, “incubation mixture” for “incubation reaction”, “of 100” for “of 160”

[6] = Plasma concentrations of Compound 3 and its metabolite Compound 2 in rats; type: in vivo, rat
Method: Under the same conditions as described in Example 3, Compound 3 (5 mg/kg/day) was administered to female rats at a dose of 5 mg/kg. Blood samples were taken from the rats at several time-points (0.5, 1, 3, 6 h, N=3 animals at each time-point), to allow for calculation of AUC (0-inf) of compound 3 and compound 2 in rat plasma.
The plasma samples were stored at −15° C. until analysis. Compound 3 and compound 2 were determined in plasma after protein precipitation with acetonitrile containing the internal standards for compound 3 and compound 2. The supernatant was analyzed by separation employing high-pressure liquid chromatography and tandem mass spectrometric detection. AUC (0-inf) means Area Under the plasma Concentration vs. time curve (0-inf) from zero to infinity.

[7] = rat plasma, single p.o. dose of Compound 1, 0.2 mg/kg

SMILES: COC[C@]1(OC)CC[C@H]2[C@@H]3CCC4=CC(=O)CCC4=C3[C@@H](c3ccc(/C=N/O)cc3)C[C@@]21C [Asoprisnil (J867), Asoprisnil]
Progesterone binding affinity, Relative molar Binding Affinity (RBA) (Progesterone receptor): about 299 % RBA

conversion into Compound 2 in rat ([1]; after oral Compound 1): almost completely converted | Cmax [1, 7]: < 1 ng/mL | Cmax ([1]; rat plasma, single p.o. dose of Compound 1, 1.0 mg/kg): 3.36 ng/mL | Cmax ([1]; rat plasma, single p.o. dose of Compound 1, 5.0 mg/kg): 12.9 ng/mL | Compound 1 Cmax [1, 7]: <1.00 ng/mL | maximum concentration of remaining compound 1 in rat plasma ([1]; single oral dose of Compound 1, 5.0 mg/kg): 12.9 µg/L | proportion of Compound 1 compared to 0 hr sample ([2]; 1 μM, 0.5 mg/mL protein, after 1 hours incubation): marked decrease | Compound 2 formed in the incubation sample ([2]; incubation of 1 μM Compound 1, after 1 hour): large quantity | proportion of Compound 1 compared to 0 hr sample (recombinant human CYP3A4; after 0.5 and 2 hours incubation with rhCYP3A4): marked decrease | Compound 2 formed in the incubation sample (recombinant human CYP3A4; incubation of Compound 1 with rhCYP3A4): large quantity | amount of compound 2 in the incubation sample (recombinant human CYP3A4; incubation of Compound 1 with rhCYP3A4, after 120 min): decreased remarkably | Compound 1 (% of 14C-radioactivity) (recombinant human CYP3A4; incubation time with rhCYP3A4 0 h): 82% | Compound 1 (% of 14C-radioactivity) (recombinant human CYP3A4; incubation time with rhCYP3A4 0.5 h): 52% | Compound 1 (% of 14C-radioactivity) (recombinant human CYP3A4; incubation time with rhCYP3A4 2 h): 2.7%
SMILES: C[C@]12C[C@H](c3ccc(S(C)(=O)=O)cc3)C3=C4CC[C@@H](O)C=C4CC[C@H]3[C@@H]1CC[C@@]2(O)C(F)(F)C(F)(F)F [Compound 1, (3α,11β,17β)-11-[4-(methylsulfonyl)phenyl]-17-(pentafluoroethyl)estra-4,9-diene-3,17-diol]

agonistic activity on PR-A [3]: no agonistic activity | antagonism on PR-A [3]: very strong antagonist | agonistic activity on PR-B [4]: no agonistic activity | antagonism on PR-B [4]: very strong antagonist | proportion of Compound 2 compared to 0 hr sample ([5]; 10 μM, 1.0 mg/mL cytosolic protein, NADPH, after 1 and 4 hours): marked decrease | turnover of Compound 2 to Compound 1 in liver cytosol ([5]; absence of NADPH generating system as well as presence of NAD co-factor): No turnover | Compound 1 formed in the incubation sample ([5]; incubation of 10 μM Compound 2, after 1 and 4 hours): significant quantity
SMILES: C[C@]12C[C@H](c3ccc(S(C)(=O)=O)cc3)C3=C4CCC(=O)C=C4CC[C@H]3[C@@H]1CC[C@@]2(O)C(F)(F)C(F)(F)F [Compound 2, (11β,17β)-17-Hydroxy-11-[4-(methylsulphonyl)phenyl]-17-(pentafluoroethyl)estra-4,9-dien-3-one]

conversion into Compound 2 in rat ([6]; after oral Compound 3): partially converted | AUC(0-inf) ([6]; po, rat plasma, single p.o. 5 mg/kg of Compound 3, female rats): 1240 ng·h/mL
SMILES: C[C@]12C[C@H](c3ccc([S@](C)(=N)=O)cc3)C3=C4CCC(=O)C=C4CCC3C1CC[C@@]2(O)C(F)(F)C(F)(F)F (stereo partly drawn) [Compound 3, (11β,17β)-17-hydroxy-11-[4-(RS-methylsulphonimidoyl)phenyl]-17-(pentafluoroethyl)estra-4,9-dien-3-one]

SMILES: COC[C@]1(OC)CC[C@H]2[C@@H]3CCC4=CC(=O)CCC4=C3[C@@H](c3ccc(/C=N/O)cc3)C[C@@]21C [Compound J912]
Progesterone binding affinity, Relative molar Binding Affinity (RBA) (Progesterone receptor): about 165 % RBA
